From patent US12616753B2, “HSP70 inhibitors and methods of using same” (THE WISTAR INSTITUTE, priority 2020, dated 2026)

Columns and labels:
[1] = target: N-terminal HIS tagged HSP70 (Homo sapiens, UniProt P0DMV8); test: Small molecule binding to HSP70 using SPR (Biacore T200)
Experimental: SPR experiments were conducted using the Biacore T200. Approximately 20,000 RU of N-terminal HIS tagged HSP70 was immobilized on a multi-dentate NTA derivatized linear carboxylate sensor chip (NICH1500M, Xantec Bioanalytics). The running buffer was PBS containing 2 mM MgCl2, 0.05% Tween, and 5% DMSO. Test compounds were diluted at 20× final concentration in 100% DMSO and then diluted into running buffer without DMSO so that the DMSO concentrations in both the sample and the running buffer were similar. Flow rate was 30 μL/min, contact time for each sample concentration was 30 seconds, followed by a 60 second dissociation time. Data were analyzed using the Biacore evaluation software and the resulting sensograms exported and re-plotted in GraphPad Prism.
The next studies sought to determine whether AP-4-139B interacts directly with HSP70. To accomplish this, full-length His-tagged human HSP70 was used, and it was immobilized on a high affinity poly-Ni-NTA sensor chip for surface plasmon resonance experiments on a Biacore T200. This HSP70-loaded chip was incubated with AP-4-139B or the negative control VY-3-277. As a positive control the adenosine-derived HSP70 inhibitor Ver-155008 was used (Massey et al., Cancer Chemother Pharmacol. 2010 August; 66(3):535-45).

[2] = tested on: 1205LU melanoma xenografts; test: 1205Lu melanoma xenograft in NSG mice; format: in vivo, mouse; details: i.p. twice per week
Experimental: 1205LU melanoma xenografts in NSG mice were established. When tumors reached 100 mm^3 in volume, mice were treated twice per week with the i.p. doses of AP-4-139B indicated.
AP-4-139B was tested as a single agent in a 1205Lu melanoma xenograph in mice. 1205LU melanoma xenografts in NSG mice were established. When tumors reached 100 mm^3 in volume, mice were treated twice per week with the i.p. doses of AP-4-139B indicated.

MC38 and HT-29 cells = test: Extracellular HMGB1 release; format: cell-based; details: 8 or 24 hours
Experimental: FIG. 6A: 1×10^6 MC38 cells were injected subcutaneously into the right flank of 6-8-week-old male C57Bl/6 mice. Once tumors reached an approximate volume of 100 mm^3, mice were treated with AP-4-139B (10 mg/kg) every 48 hours. 20 days after the start of treatment, tumors were excised, weighed, minced and digested. Tumor-infiltrating and splenic conventional CD4 (cCD4) (Live CD45^+ DUMP^− CD3^+CD4^+Foxp3^−), Tregs (Live CD45^+ DUMP^− CD3^+CD4^+Foxp3^+), CD8 (Live CD45^+ DUMP^− CD3^+CD8^+) T-cells, and Dendritic Cells (Live CD45^+ DUMP^− CD3^−CD11c^+MHCII^+) numbers were assessed by flow cytometry. * p<0.05, n.s. not significant. n=8 mice per group. FIG. 6B: MC38 and HT-29 cells were treated with the indicated concentrations of AP-4-139B for either 8 or 24 hours; media was collected and subjected to WB for HMGB1. Data shown are representative of three technical replicates. FIG. 6C: MC38 and HT-29 cells were treated with the indicated concentrations of AP-4-139B for three hours and then assayed for extracellular ATP release. […]
The XF Cell Mito Stress Test was performed. […] For extracellular ATP release, ATP was measured using the CellTiter-Glo Kit (Promega catalog #G7570). […] 10 μl of CellTiter-Glo Reaction Mix was then mixed with 10 μl of culture media; the luminescence signal was detected using a luminometer.

MC38 cells = test: Anti-tumor vaccination study in C57BL/6 mice; format: in vivo, mouse
Experimental: FIG. 25A: C57Bl/6 mice were injected with either PBS or AP-4-139B pre-treated MC38 cells into the left flank. 10 days later, the same mice were injected with untreated MC38 cells in the right flank. […] Log rank test p<0.0001. FIG. 25B: Tumor growth measured in mice in FIG. 25A over 25 days. n=15 mice per group. Wilcox rank-sum test p<0.0001.
For in vivo metastasis assays, 8-10 week old male C57Bl/6 mice were injected with 4×10^5 MC38 cells. Mice were then treated with either vehicle or 10 mg/kg AP-4-139B every 48 hours for 3 weeks. At the end of the study, mice were euthanized, lungs were harvested and fixed in formalin for analysis of lung tumor nodules by H&E. For anti-tumor vaccination studies, MC38 cells were treated with 10 μM AP-4-139B for 48 h, resulting in approximately 20% cell death (as assessed by Trypan Blue staining). 2×10^6 pre-treated MC38 cells or PBS was inoculated subcutaneously into the left flank of 8-10 week old male C57BL/6 mice. Ten days later, mice were challenged on the right flank with 5×10^5 live MC38 cells, and tumor growth and incidence were monitored 3 times per week. The absence of tumors was scored as an indication for efficient antitumor vaccination.

[3] = Half-life of PET-16 in plasma

Chain of N-terminal HIS tagged HSP70 (P0DMV8 whole entry): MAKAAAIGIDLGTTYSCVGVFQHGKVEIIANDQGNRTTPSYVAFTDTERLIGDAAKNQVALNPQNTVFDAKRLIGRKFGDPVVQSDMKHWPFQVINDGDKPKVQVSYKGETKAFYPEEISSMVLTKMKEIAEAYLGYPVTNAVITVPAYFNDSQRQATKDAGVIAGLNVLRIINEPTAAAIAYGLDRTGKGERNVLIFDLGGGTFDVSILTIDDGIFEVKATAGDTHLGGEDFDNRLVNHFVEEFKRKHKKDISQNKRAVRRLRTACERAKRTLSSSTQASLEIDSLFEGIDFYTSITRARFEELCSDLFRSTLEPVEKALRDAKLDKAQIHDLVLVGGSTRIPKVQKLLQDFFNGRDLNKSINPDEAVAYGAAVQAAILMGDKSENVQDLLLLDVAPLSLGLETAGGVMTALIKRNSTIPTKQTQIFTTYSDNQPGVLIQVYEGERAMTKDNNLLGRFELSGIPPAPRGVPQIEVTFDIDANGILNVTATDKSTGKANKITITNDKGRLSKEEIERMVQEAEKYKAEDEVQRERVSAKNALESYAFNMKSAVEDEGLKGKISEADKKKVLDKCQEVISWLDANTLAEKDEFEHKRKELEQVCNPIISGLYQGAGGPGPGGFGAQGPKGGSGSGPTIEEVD

| Compound | binding to sensor chips loaded with HSP70 [1] | tumor growth, 1205Lu xenograft [2] | tumor weight, 1205Lu xenograft [2] | HMGB1 secretion (MC38 and HT-29 cells) | tumor size in vaccine-treated mice (MC38 cells; over 25 days) | mice that developed tumors on the right flank (MC38 cells; vaccinated with pre-treated MC38 cells, control 15 of 15) | half-life [3] [min] |
| --- | --- | --- | --- | --- | --- | --- | --- |
| c1ccc(-c2cn3nc(CCCCCC[P+](c4ccccc4)(c4ccccc4)c4ccccc4)sc3n2)cc1 [AP-4-139B, Triphenyl(6-(6-phenylimidazo[2,1-b][1,3,4]thiadiazol-2-yl)hexyl)phosphonium bromide] | reproducibly bound in concentration-dependent manner | inhibit tumor growth | reduce tumor weight | reproducibly induced HMGB1 secretion | markedly reduced compared with control | 3 of 15 |  |
| C(#C[P+](c1ccccc1)(c1ccccc1)c1ccccc1)c1ccccc1 [PET-16, Triphenyl(phenylethynyl)phosphonium bromide, reference compound] |  |  |  |  |  |  | < 30 |
